Results published in the NIST ThermoML archive (doi:10.1016/j.tca.2009.01.008).
Numbers after ± are expanded uncertainties.

Legend:
[1] = molar heat capacity at constant pressure; xn = mol fraction of the nth substance listed; settings: 101 kPa, Liquid, Vacuum adiabatic calorimetry
[2] = molar heat capacity at constant pressure; settings: 101.33 kPa, Liquid, Vacuum adiabatic calorimetry

OCCOCCOCCO [triethylene glycol] + O
molar heat capacity at constant pressure [J/K/mol], [1]
Settings | 303.15 K | 313.15 K | 323.15 K | 333.15 K | 343.15 K | 353.15 K
x1 = 0.2 | 129.3 ± 0.3 | 131 ± 0.3 | 132.9 ± 0.3 | 135.1 ± 0.3 | 137.2 ± 0.3 | 139.7 ± 0.3
x1 = 0.4 | 184.1 ± 0.3 | 186.3 ± 0.3 | 189 ± 0.3 | 192.1 ± 0.3 | 195.2 ± 0.3 | 198.7 ± 0.3
x1 = 0.5 | 211.3 ± 0.3 | 213.6 ± 0.3 | 216.5 ± 0.3 | 219.8 ± 0.3 | 223.4 ± 0.4 | 227.3 ± 0.4
x1 = 0.6 | 237.8 ± 0.4 | 240.5 ± 0.4 | 243.7 ± 0.4 | 249.7 ± 0.4 | 251.8 ± 0.4 | 256.1 ± 0.4
x1 = 0.8 | 288.3 ± 0.4 | 291.8 ± 0.4 | 295.7 ± 0.4 | 300.3 ± 0.4 | 306 ± 0.4 | 311.3 ± 0.4

OCCOCCO [diethylene glycol]
[2]
Settings | molar heat capacity at constant pressure [J/K/mol]
303.15 K | 248.2 ± 0.4
313.15 K | 251.3 ± 0.4
323.15 K | 255 ± 0.4
333.15 K | 259.2 ± 0.4
343.15 K | 263.8 ± 0.4
353.15 K | 266.8 ± 0.4

OCCCOCCCO [4-oxa-1,7-heptanediol]
[2]
Settings | molar heat capacity at constant pressure [J/K/mol]
303.15 K | 329 ± 0.4
313.15 K | 335.3 ± 0.4
323.15 K | 341.5 ± 0.4
333.15 K | 348.8 ± 0.4
343.15 K | 355.8 ± 0.4
353.15 K | 363.8 ± 0.4

CC(O)CO (centres undefined) [1,2-propanediol] + O
molar heat capacity at constant pressure [J/K/mol], [1]
Settings | 303.15 K | 313.15 K | 323.15 K | 333.15 K | 343.15 K | 353.15 K
x1 = 0.2 | 101.9 ± 0.2 | 103 ± 0.2 | 104.3 ± 0.2 | 105.8 ± 0.2 | 107.2 ± 0.3 | 108.8 ± 0.3
x1 = 0.4 | 127 ± 0.3 | 129.4 ± 0.3 | 132.1 ± 0.3 | 134.9 ± 0.3 | 137.7 ± 0.3 | 140.7 ± 0.3
x1 = 0.5 | 138.9 ± 0.3 | 141.9 ± 0.3 | 145.1 ± 0.3 | 148.7 ± 0.3 | 152.1 ± 0.3 | 155.6 ± 0.3
x1 = 0.6 | 150.3 ± 0.3 | 153.9 ± 0.3 | 157.7 ± 0.3 | 161.8 ± 0.3 | 165.8 ± 0.3 | 169.9 ± 0.3
x1 = 0.8 | 172.1 ± 0.3 | 176.4 ± 0.3 | 180.9 ± 0.3 | 185.8 ± 0.3 | 190.6 ± 0.3 | 195.5 ± 0.3

CC(O)CO (centres undefined) [1,2-propanediol]
[2]
Settings | molar heat capacity at constant pressure [J/K/mol]
303.15 K | 192.8 ± 0.3
313.15 K | 197 ± 0.3
323.15 K | 201.3 ± 0.3
333.15 K | 206 ± 0.3
343.15 K | 210.6 ± 0.3
353.15 K | 215.3 ± 0.3

OCCOCCOCCO [triethylene glycol]
[2]
Settings | molar heat capacity at constant pressure [J/K/mol]
303.15 K | 336.3 ± 0.4
313.15 K | 339.5 ± 0.4
323.15 K | 343.1 ± 0.4
333.15 K | 347.9 ± 0.4
343.15 K | 353.7 ± 0.4
353.15 K | 359.3 ± 0.4

OCCOCCO [diethylene glycol] + O
molar heat capacity at constant pressure [J/K/mol], [1]
Settings | 303.15 K | 313.15 K | 323.15 K | 333.15 K | 343.15 K | 353.15 K
x1 = 0.2 | 111.8 ± 0.3 | 113.5 ± 0.3 | 115.3 ± 0.3 | 117.4 ± 0.3 | 119.3 ± 0.3 | 121.7 ± 0.3
x1 = 0.4 | 148.7 ± 0.3 | 150.7 ± 0.3 | 153.3 ± 0.3 | 155.9 ± 0.3 | 158.7 ± 0.3 | 161.8 ± 0.3
x1 = 0.5 | 167.6 ± 0.3 | 169.9 ± 0.3 | 172.6 ± 0.3 | 175.5 ± 0.3 | 178.7 ± 0.3 | 182.2 ± 0.3
x1 = 0.6 | 184.5 ± 0.3 | 187.1 ± 0.3 | 190.3 ± 0.3 | 193.6 ± 0.3 | 197.3 ± 0.3 | 201.2 ± 0.3
x1 = 0.8 | 217.9 ± 0.3 | 221.2 ± 0.3 | 225 ± 0.3 | 229.1 ± 0.4 | 233.6 ± 0.4 | 238.5 ± 0.4

OCCCOCCCO [4-oxa-1,7-heptanediol] + O
molar heat capacity at constant pressure [J/K/mol], [1]
Settings | 303.15 K | 313.15 K | 323.15 K | 333.15 K | 343.15 K | 353.15 K
x1 = 0.2 | 129.1 ± 0.3 | 130.8 ± 0.3 | 132.7 ± 0.3 | 135 ± 0.3 | 137.1 ± 0.3 | 139.5 ± 0.3
x1 = 0.4 | 181.8 ± 0.3 | 184.9 ± 0.3 | 188.2 ± 0.3 | 191.9 ± 0.3 | 195.5 ± 0.3 | 199.6 ± 0.3
x1 = 0.5 | 207.2 ± 0.3 | 210.9 ± 0.3 | 214.7 ± 0.3 | 219.3 ± 0.4 | 223.5 ± 0.4 | 228.3 ± 0.4
x1 = 0.6 | 231.9 ± 0.4 | 236.2 ± 0.4 | 240.7 ± 0.4 | 245.8 ± 0.4 | 250.8 ± 0.4 | 256.3 ± 0.4
x1 = 0.8 | 279.7 ± 0.4 | 285 ± 0.4 | 290.4 ± 0.4 | 296.6 ± 0.4 | 302.7 ± 0.4 | 309.4 ± 0.4
